From BigSolDB 2.1

O=c1cc(CBr)c2ccccc2[nH]1
solubility (mole fraction)
Settings | 278.15 K | 283.15 K | 288.15 K | 293.15 K | 298.15 K | 303.15 K | 308.15 K | 313.15 K | 318.15 K
in NMP | 0.00539 | 0.00606 | 0.00705 | 0.0081 | 0.00928 | 0.0105 | 0.0119 | 0.0135 | 0.0151
in ethanol | 0.00019 | 0.000211 | 0.000235 | 0.000261 | 0.000286 | 0.000316 | 0.000347 | 0.000378 | 0.000411
in isopropanol | 0.000152 | 0.000175 | 0.000202 | 0.000229 | 0.00026 | 0.000293 | 0.000328 | 0.000365 | 0.000406
in n-propanol | 0.000242 | 0.000269 | 0.000297 | 0.000325 | 0.000357 | 0.00039 | 0.00043 | 0.000466 | 0.000505
in water | 4.78e-06 | 6.58e-06 | 9.12e-06 | 1.25e-05 | 1.67e-05 | 2.16e-05 | 2.88e-05 | 3.76e-05 | 4.76e-05
